Results on 13 substances are retold here after patent publication US12060387B2, “Polypeptide-based shuttle agents for improving the transduction efficiency of polypeptide cargos to the cytosol of target eukaryotic cells, uses thereof, methods and kits relating to same” (priority 2015, dated 2024).

Read-outs that look alike come from different tables or passages of the source. Where no end group is shown, it is not given here.

By viability is commonly meant a read-out of living cells in per cent, often relative to untreated cells.

The test system of data set [1] is HeLa cells. Kind of data set: GFP-NLS transduction efficiency, flow cytometry (Pos cells %, relative fluorescence intensity FL1-A). In kind it is cell-based, Human. As to conditions: 1 minute, Protocol B; for Mean % cells with GFP signal (±St. Dev.; n = 3), FIG. 29I: shuttle 20 μM, GFP-NLS 5 μM. On the technique in general: In flow cytometry, cells or beads pass a laser one at a time.

For data set [2], the system named is HeLa cells. Put plainly: Cell toxicity / % cell viability by flow cytometry (cells in total events v. untreated). In kind it is cell-based, Human. As to conditions: for effect of the variation of the shuttle on cell viability (in words): GFP-NLS 5 μM with 20 μM shuttle variant, 1 minute.
Excerpt: (§2) The fluorescence of GFP was quantified using flow cytometry (Accuri C6, Becton, Dickinson and Company (BD)). Untreated cells were used to establish a baseline in order to quantify the increased fluorescence due to the internalization of the fluorescent protein in treated cells. The percentage of cells with a fluorescence signal above the maximum fluorescence of untreated cells, “mean %” or “Pos cells (%)”, is used to identify positive fluorescent cells. “Relative fluorescence intensity (FL1-A)” corresponds to the mean of all fluorescence intensities from each cell with a fluorescent signal after fluorescent protein delivery with the shuttle agent. Also, the events scanned by flow cytometry corresponding to cells (size and granularity) were analyzed. The cellular toxicity (% cell viability) was monitored comparing the percentage of cells in the total events scanned of treated cells comparatively to untreated cells.
For data set [3], the system named is THP-1 cells. Put plainly: Total RNA levels (ng/μL) as a marker for cell viability. In kind it is cell-based, human. The method, then: (§1) Control and treated cells are transferred to separate sterile 1.5-mL tubes and centrifuged for 5 minutes at 300 g. The cell pellets are resuspended in appropriate buffer to lyse the cells. RNAase-free 70% ethanol is then added followed by mixing by pipetting. The lysates are transferred to an RNeasy™ Mini spin column and centrifuged 30 seconds at 13000 RPM. After several washes with appropriate buffers and centrifugation steps, the eluates are collected in sterile 1.5-mL tubes on ice, and the RNA quantity in each tube is then quantified with a spectrophotometer. For DNase treatment, 2 μg of RNA is diluted in 15 μL of RNase-free water. 1.75 μL of 10× DNase buffer and 0.75 μL of DNase is then added, followed by incubation at 37° C. for 15 minutes. For reverse transcriptase treatment, 0.88 μL of EDTA ([…]) is added, followed by incubation at 75° C. for 5 minutes. In a PCR tube, 0.5 μg of DNase-treated RNA is mixed with 4 μL of iScript™ Reverse transcription Supermix (5×) and […] of nuclease-free water. The mix is incubated in a PCR machine with the following program: 5 min at 25° C., 30 min at 42° C. and 5 min at 85° C. Newly synthesized cDNA is transferred in sterile 1.5-mL tubes and diluted in 2 μL of nuclease-free water. 18 μL per well of a qPCR machine (CFX-96™) mix is then added in a PCR plate for analysis.
Briefly, THP-1 cells were plated at 30 000 cells/well one day before transduction. HOXB4-WT recombinant protein (0.3, 0.9, or 1.5 μM; Example 14.1) was co-incubated with different concentrations of His-CM18-PTD4 ([…], 0.8 or 1 μM) and then exposed to THP-1 cells for 2.5 hours in the presence of serum. The cells were subjected to real time-PCR analysis as described in Example 14.2 to measure the mRNA levels of a target gene as a marker for HOXB4 activity, which was then normalized to the target gene mRNA levels detected in the negative control cells (no treatment), to obtain a “Fold over control” value. Total RNA levels (ng/μL) were also measured as a marker for cell viability.

The nature of data set [4]: Cell toxicity / % cell viability by flow cytometry (cells in total events v. untreated). In kind it is cell-based, Human. As to conditions: human, HeLa cells, HeLa, GFP-NLS 5 μM, read-out: Cell viability (%) (±St. Dev.; n = 3); for viability at 10 s, 50 µM: FIG. 29A, shuttle 50 μM, 10 seconds; for viability at 10 s, 50 µM / viability at 1 min, 10 µM / viability at 2 min, 10 µM / viability at 5 min, 10 µM / viability at 1 min, 20 µM: Protocol B; for viability at 1 min, 10 µM / viability at 2 min, 10 µM / viability at 5 min, 10 µM: shuttle 10 μM; for viability at 1 min, 10 µM: incubation 1 min; for viability at 2 min, 10 µM: incubation 2 min; for viability at 5 min, 10 µM: incubation 5 min; for viability at 1 min, 20 µM: FIG. 29I, shuttle 20 μM, 1 minute.
Excerpt: as §2

The subject of data set [5] is THP-1 cells. Kind of data set: HOXB4-WT transduction, real-time PCR of target gene mRNA (Fold over control). In kind it is cell-based, human. On the procedure: as §1
Briefly, THP-1 cells were plated at 30 000 cells/well one day before transduction. […] The cells were subjected to real time-PCR analysis as described in Example 14.2 to measure the mRNA levels of a target gene as a marker for HOXB4 activity, which was then normalized to the target gene mRNA levels detected in the negative control cells (no treatment), to obtain a “Fold over control” value. Total RNA levels (ng/μL) were also measured as a marker for cell viability.
Briefly, THP-1 cells were plated at 30 000 cells/well one day before the first time course experiment. […] The cells were subjected to real time-PCR analysis as described in Example 14.2 to measure mRNA levels of a target gene as a marker for HOXB4 activity, which was then normalized to the target gene mRNA levels detected in the negative control cells (no treatment), to obtain a “Fold over control” value. Total RNA levels (ng/μL) were also measured as a marker for cell viability.
Briefly, THP-1 cells were plated at 30 000 cells/well one day before the first time course experiment. […] The cells were subjected to real time-PCR analysis as described in Example 14.2 to measure mRNA levels of a target gene as a marker for HOXB4 activity, which was then normalized to target gene mRNA levels detected in the negative control cells (no treatment), to obtain a “Fold over control” value. Total RNA levels (ng/μL) were also measured as a marker for cell viability. […]
Background: In qPCR the cycle at which signal appears reflects the starting amount.

A short description of data set [6]: Cell toxicity / % cell viability by flow cytometry (cells in total events v. untreated). In kind it is cell-based, human. As to conditions: human, THP-1 cells, THP-1, Protocol C, shuttle 1 μM, GFP-NLS 5 μM, read-out: Cell viability (%) (±St. Dev.; n = 3).
Excerpt: as §2
[7] abbreviates: Cell viability (%) (±St. Dev.; n = 3).
Setting [8] is: HeLa, Protocol B, shuttle 50 μM, GFP-NLS 5 μM, 10 seconds.

Consider “KWKLFKKIGAVLKVLTTGGGSGGGSGGGSGYARAAARQARA [CM18-L3-PTD4]”, for which the “effect of the variation of the shuttle on transduction efficiency (in words)” value with HeLa cells [1] (GFP-NLS 5 μM with 20 μM shuttle variant) is reported as “did not result in a dramatic loss of transduction efficiency”. Also, the “Mean % cells with GFP signal (±St. Dev.; n = 3), FIG. 29I” value (shortened to “Mean % cells with GFP signal”) in the data set on HeLa cells [1] is listed as 39.0 ± 2.7%. Moreover, the “effect of the variation of the shuttle on cell viability (in words)” value (“effect … on cell viability (in words)” below) in the data set on HeLa cells [2] (HeLa, Protocol B) was “increased cell viability”.

Take “HHHHHHKWKLFKKIGAVLKVLTTGYARAAARQARA [His-CM18-PTD4 alone]”: the “Total RNA in ng/μL (mean ± St. Dev)” value turned out to be 252 ± 10.7 ng/µL in the data set on THP-1 cells [3] (Table 14.1, shuttle 1 μM, HOXB4-WT 0 μM, 2.5 hours with serum); 184 ± 6.0 ng/µL with THP-1 cells [3] (Table 14.2, shuttle 0.8 μM, HOXB4-WT 0 μM, exposure time 2.5 h, serum); 260 ± 7.1 ng/µL in the data set on THP-1 cells [3] (Table 14.3, shuttle 0 μM, HOXB4-WT 0.3 μM, exposure time 2.5 h, serum); 303.9 ± 7.6 ng/µL with THP-1 cells [3] (Table 14.4, shuttle 0 μM, HOXB4-WT 1.5 μM, exposure time 2.5 h, serum).

In the case of “HHHHHHKWKLFKKIGAVLKVLTTGRRRRRRRRR [His-CM18-9Arg]”, the viability at 10 s, 50 µM in data set [4] (setting [7]) came out at 45.8 ± 5.4%. Also, the “Cell viability (%) (±St. Dev.; n = 3), FIG. 29E” value (“Cell viability (%) … FIG. 29E” for short) with HeLa cells [2] (setting [8]) is listed as 45.8 ± 3.53%.

Take HOXB4-WT alone: the “Fold over control (mean ± St. Dev)” value in the data set on THP-1 cells [5] (Table 14.1, shuttle 0 μM, HOXB4-WT 1.5 μM, 2.5 hours with serum) is 4.3 ± 0.1; in the data set with THP-1 cells [5] (Table 14.2, shuttle 0 μM, HOXB4-WT 1.5 μM, exposure time 2.5 h, serum) it was 3.4 ± 0.3; in the data set on THP-1 cells [5] (Table 14.3, shuttle 0.8 μM, HOXB4-WT 0 μM, exposure time 2.5 h, serum) it was 1 ± 0.14; in the data set on THP-1 cells [5] (Table 14.4, shuttle 0.8 μM, HOXB4-WT 0 μM, exposure time 2.5 h, serum) it was 1 ± 0.11.

In the case of “YARAAARQARAWEAKLAKALAKALAKHLAKALAKALKACEA [PTD4-KALA]”, in data set [4] (FIG. 29G), the viability at 1 min, 10 µM stood at 96.2 ± 3%; the viability at 2 min, 10 µM was 75.3 ± 3.8%; the viability at 5 min, 10 µM stood at 82.4 ± 4.7%. Also, the viability at 10 s, 50 µM in data set [4] is 91.4 ± 3.67%. Moreover, the “Cell viability (%) (±St. Dev.; n = 3), FIG. 29F” value (from here on “Cell viability (%) … FIG. 29F”) with HeLa cells [2] was 91.4 ± 3.67%.

“MHHHHHHKWKLFKKIGAVLKVLTTGYARAAARQARAC [Met-His-CM18-PTD4-Cys]”: the “Mean % cells with GFP signal” value in the data set with HeLa cells [1] is on record as 45.6 ± 3.88%. For the same substance, the viability at 1 min, 20 µM in data set [4] (setting [7]) stood at 54.9 ± 3.45%.

“HHHHHHKWKLFKKIGAVLKVLTTGYGRKKRRQRRR [His-CM18-TAT]”: the viability at 1 h, 1 µM in data set [4] (Cell viability (%) (±St. Dev.; n = 3), FIG. 21B, shuttle 1 μM, 1 hour, FIG. 21B) stood at 95 ± 3.55%. Moreover, in data set [4] (Cell viability (%) (±St. Dev.; n = 3), FIG. 21B, shuttle 3 μM, 1 hour, FIG. 21B), the viability at 1 h, 3 µM is 91 ± 5.18%. The viability at 1 h, 5 µM in data set [4] (Cell viability (%) (±St. Dev.; n = 3), FIG. 21B, shuttle 5 μM, 1 hour, FIG. 21B) amounted to 86 ± 4.59%. Besides, the viability at 10 s, 50 µM in data set [4] (setting [7]) worked out at 35.2 ± 5.7%. For the same substance, the “Cell viability (%) … FIG. 29E” value in the data set with HeLa cells [2] (setting [8]) came out at 35.2 ± 5.7%.

On to “HHHHHHKWKLFKKIGAVLKVLTTGYARAAARQARACCCCCC (cysteines drawn unpaired) [His-CM18-PTD4-6Cys]”, for which, in the data set with HeLa cells [1], the “Mean % cells with GFP signal” value was found to be 41.3 ± 4.28%. The viability at 1 min, 20 µM in data set [4] (setting [7]) worked out at 62 ± 5.76%.

For “HHHHHHKWKLFKKIGAVLKVLTTGGWTLNSAGYLLKINLKALAALAKKIL [His-CM18-Transportan (TPT)]”, the viability at 10 s, 50 µM in data set [4] (setting [7]) stood at 41.3 ± 3.3%. In the data set with HeLa cells [2] (setting [8]), the “Cell viability (%) … FIG. 29E” value is 41.3 ± 3.29%.

As for “YGRKKRRQRRRCWEAKLAKALAKALAKHLAKALAKALKACEA (cysteines drawn unpaired) [TAT-KALA]”, in data set [4] (FIG. 29B), the viability at 1 min, 10 µM is 93.5 ± 2.7%; the viability at 2 min, 10 µM was found to be 92.1 ± 3.1%; the viability at 5 min, 10 µM is 86 ± 4.4%. Also, in data set [4], the viability at 10 s, 50 µM was 95.6 ± 4.3%. Also, the “Cell viability (%) … FIG. 29F” value with HeLa cells [2] (setting [8]) is on record as 95.6 ± 4.3%. Besides, the viability at 15 s, 1 µM in data set [6] (incubation time 15 sec) came out at 84.6 ± 2.7%. Besides, the viability at 0.5 min, 1 µM in data set [6] (incubation time 30 sec) stood at 70.3 ± 3.2%. Further, the viability at 1 min, 1 µM in data set [6] (incubation time 60 sec) turned out to be 82.7 ± 1.4%. Moreover, the viability at 2 min, 1 µM in data set [6] (incubation time 120 sec) stood at 46.3 ± 4.9%.

Take “YGRKKRRQRRRCKWKLFKKIGAVLKVLTTG [TAT-CM18]”: the viability at 10 s, 50 µM in data set [4] (setting [7]) came out at 23.5 ± 1.1%. In the data set on HeLa cells [2] (setting [8]), the “Cell viability (%) … FIG. 29F” value amounted to 23.5 ± 1.1%.

On to “KWKLFKKIGAVLKVLTTGGGSGGGSYARAAARQARA [CM18-L2-PTD4]”, for which, in data set [4] (setting [7]), the viability at 1 min, 20 µM came to 64 ± 1.3%. For the same substance, the “effect … on cell viability (in words)” value in the data set with HeLa cells [2] (HeLa, Protocol B) is reported as “increased cell viability”.

With “KWKLFKKIGAVLKVLTTGGGSYARAAARQARA [CM18-L1-PTD4]”, in data set [4] (setting [7]), the viability at 1 min, 20 µM turned out to be 50.1 ± 3.8%. For the same substance, in the data set on HeLa cells [2] (HeLa, Protocol B), the “effect … on cell viability (in words)” value was “increased cell viability”.
